Patent US7015329B2 (Janssen Pharmaceutica N. V., priority 2003, dated 2006)

Assays:
PPAR delta = target: T1, PPAR delta (Homo sapiens, UniProt Q03181); test: Transfection assay for PPAR receptors (GAL4-LBD luciferase reporter), PPAR delta; type: cell-based; details: 18–24 hrs
T1 construct: expressed in transfected cells; host or cells: HEK293
T1 sequence (Q03181 211-439 limits assumed): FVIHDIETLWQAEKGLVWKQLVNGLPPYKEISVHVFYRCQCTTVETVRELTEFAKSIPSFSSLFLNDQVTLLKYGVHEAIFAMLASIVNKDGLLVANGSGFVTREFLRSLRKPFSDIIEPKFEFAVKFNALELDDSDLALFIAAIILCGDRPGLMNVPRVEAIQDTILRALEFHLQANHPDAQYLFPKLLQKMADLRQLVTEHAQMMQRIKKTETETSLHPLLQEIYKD
Method: (§1) Transfection Assay Method for PPAR Receptors
(§2) HEK293 cells were grown in DMEM/F12 medium supplemented with 10% FBS and glutamine (Invitrogen) and incubated in a 5% CO2 incubator at 37° C. The cells were co-transfected using DMRIE-C reagent (Invitrogen) in serum free medium (Opti-MEM, Invitrogen) with two mammalian expression plasmids, one containing the DNA sequence coding for the ligand binding domains of either PPARαg or d fused to the yeast GAL4 DNA binding domain and the other containing the promoter sequence of the yeast GAL4 (UAS) fused to the firefly luciferase cDNA reporter. The next day, the medium was changed to DMEM/F12 medium supplemented with 5% charcoal treated serum (Hyclone) and glutamine. After 6 hrs the cells were trypsinized and seeded at a density of 50,000 cells/well into 96 well plates and incubated overnight as above. The cells were then treated with -test compounds or vehicle and incubated for 18–24 hrs as above. Luciferase reporter activity was measured using the Steady-Glo Luciferase Assay Kit from Promega. DMRIE-C Reagent was purchased from GIBCO Cat. No.10459-014. […] Steady-Glo Luciferase Assay Kit was purchased from Promega (Part#E254B).

PPAR alpha = target: T2, PPAR alpha (Homo sapiens, UniProt Q07869); test: Transfection assay for PPAR receptors (GAL4-LBD luciferase reporter), PPAR alpha; type: cell-based; details: 18–24 hrs
T2 construct: expressed in transfected cells; host or cells: HEK293
T2 sequence (Q07869 239-466 limits assumed): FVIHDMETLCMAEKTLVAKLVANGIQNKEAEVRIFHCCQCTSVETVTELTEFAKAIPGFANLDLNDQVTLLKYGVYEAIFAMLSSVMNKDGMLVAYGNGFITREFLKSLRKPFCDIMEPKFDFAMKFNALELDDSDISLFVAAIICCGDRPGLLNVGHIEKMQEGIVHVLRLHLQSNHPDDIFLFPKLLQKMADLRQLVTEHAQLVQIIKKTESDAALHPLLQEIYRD
Method: as §1
HEK293 cells were grown in DMEM/F12 medium supplemented with 10% FBS and glutamine (Invitrogen) and incubated in a 5% CO2 incubator at 37° C. The cells were co-transfected using DMRIE-C reagent (Invitrogen) in serum free medium (Opti-MEM, Invitrogen) with two mammalian expression plasmids, one containing the DNA sequence coding for the ligand binding domains of either PPARαg or d fused to the yeast GAL4 DNA binding domain and the other containing the promoter sequence of the yeast GAL4 (UAS) fused to the firefly luciferase cDNA reporter. The next day, the medium was changed to DMEM/F12 medium supplemented with 5% charcoal treated serum (Hyclone) and glutamine. After 6 hrs the cells were trypsinized and seeded at a density of 50,000 cells/well into 96 well plates and incubated overnight as above. The cells were then treated with -test compounds or vehicle and incubated for 18–24 hrs as above. Luciferase reporter activity was measured using the Steady-Glo Luciferase Assay Kit from Promega. DMRIE-C Reagent was purchased from GIBCO Cat. No.10459-014. OPTI-MEM I Reduced Serum Medium was purchased from GIBCO (Cat. No. 31985). Steady-Glo Luciferase Assay Kit was purchased from Promega (Part#E254B).
A variety of example compounds have been made and tested, with a range of in vitro results. Below are representative compounds and data; in some cases, where multiple EC50's are shown, multiple measurements were taken. Naturally, different compounds in Formula (I) may have not have activities identical to any one compound below.

PPAR gamma = target: T3, PPAR gamma (Homo sapiens, UniProt P37231); test: Transfection assay for PPAR receptors (GAL4-LBD luciferase reporter), PPAR gamma; type: cell-based; details: 18–24 hrs
T3 construct: expressed in transfected cells; host or cells: HEK293
T3 sequence (P37231 238-503 limits assumed): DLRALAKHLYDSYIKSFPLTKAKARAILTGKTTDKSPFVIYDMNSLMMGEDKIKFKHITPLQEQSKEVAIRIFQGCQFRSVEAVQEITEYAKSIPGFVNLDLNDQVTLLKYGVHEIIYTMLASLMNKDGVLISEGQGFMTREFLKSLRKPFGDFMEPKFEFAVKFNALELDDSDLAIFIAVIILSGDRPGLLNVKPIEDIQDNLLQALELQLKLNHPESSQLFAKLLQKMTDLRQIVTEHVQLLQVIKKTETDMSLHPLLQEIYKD
Method: as §1, §2

[1] = tested on: differentiated THP-1 monocytes; details: cited from earlier work
[2] = Table 1, HEK293 cells co-transfected with PPAR LBD-GAL4 and GAL4 (UAS) luciferase reporter
[3] = Table 2, compounds of interest, HEK293 cells, PPAR LBD-GAL4 luciferase reporter

| Compound | EC50 (PPAR delta; [2]) | EC50 (PPAR alpha; [2]) | EC50 (PPAR gamma; [2]) | EC50 (PPAR delta; [3]) | EC50 (PPAR alpha; [3]) | EC50 (PPAR gamma; [3]) | ABCA1 mRNA expression [1] | cholesterol efflux [1] |
| --- | --- | --- | --- | --- | --- | --- | --- | --- |
| Cc1cc(SCc2nc(-c3ccc(Cl)c(Cl)c3)ns2)ccc1OC1(C(=O)O)CCCC1 [Compound 15, 1-{4-[3-(3,4-Dichloro-phenyl)-[1,2,4]thiadiazol-5-ylmethylsulfanyl]-2-methyl-phenoxy}-cyclopentanecarboxylic acid] | > 1000 nM | > 3000 nM | > 3000 nM | – | – | – | – | – |
| Cc1ccc(-c2nsc(COc3ccc(OC(C)(C)C(=O)O)c(C)c3)n2)cc1C [Compound 22, 2-{4-[3-(3,4-Dimethyl-phenyl)-[1,2,4]thiadiazol-5-ylmethoxy]-2-methyl-phenoxy}-2-methyl-propionic acid] | 534 nM | 643 nM | > 3000 nM | – | – | – | – | – |
| Cc1cc(SCc2nc(-c3ccc(Cl)c(Cl)c3)ns2)ccc1OC(C)(C)C(=O)O [Compound 9, 2-{4-[3-(3,4-Dichloro-phenyl)-[1,2,4]thiadiazol-5-ylmethylsulfanyl]-2-methyl-phenoxy}-2-methyl-propionic acid] | 13 nM | 104 nM | > 3000 nM | – | – | – | – | – |
| Cc1cc(SCCc2nc(-c3ccc(Cl)c(Cl)c3)ns2)ccc1OC(C)(C)C(=O)O [Compound 27, 2-(4-{2-[3-(3,4-Dichloro-phenyl)-[1,2,4]thiadiazol-5-yl]-ethylsulfanyl}-2-methyl-phenoxy)-2-methyl-propionic acid] | 9.3 nM | 123 nM | > 1000 nM | – | – | – | – | – |
| Cc1cc(OCc2nc(-c3ccc(OC(F)(F)F)c(Cl)c3)ns2)ccc1OC(C)(C)C(=O)O [Compound 25] | 13 nM | 96.8 nM | > 3000 nM | – | – | – | – | – |
| Cc1cc(SCc2sc(-c3ccc(C(F)(F)F)cc3)nc2C)ccc1OCC(=O)O [GW501516] | – | – | – | – | – | – | induced | enhanced |
| Cc1cc(OCc2nc(-c3ccc(C(F)(F)F)c(F)c3)ns2)ccc1OC(C)(C)C(=O)O [Compound 21, 2-{4-[3-(3-Fluoro-4-trifluoromethyl-phenyl)-[1,2,4]thiadiazol-5-ylmethoxy]-2-methyl-phenoxy}-2-methyl-propionic acid] | 3 nM | 85 nM | > 3000 nM | – | – | – | – | – |
| Cc1ccc(-c2nsc(COc3ccc(OC(C)(C)C(=O)O)c(C)c3)n2)cc1Cl [Compound 20, 2-{4-[3-(3-Chloro-4-methyl-phenyl)-[1,2,4]thiadiazol-5-ylmethoxy]-2-methyl-phenoxy}-2-methyl-propionic acid] | 148 nM | 297 nM | > 3000 nM | – | – | – | – | – |
| Cc1cc(SCc2nsc(-c3ccc(Cl)c(Cl)c3)n2)ccc1OC(C)(C)C(=O)O [Compound 19, 2-{4-[5-(3,4-Dichloro-phenyl)-[1,2,4]thiadiazol-3-ylmethylsulfanyl]-2-methyl-phenoxy}-2-methyl-propionic acid] | 229 nM | > 3000 nM | > 3000 nM | – | – | – | – | – |

Second part, led by results:

| EC50 (PPAR delta; [2]) | EC50 (PPAR alpha; [2]) | EC50 (PPAR gamma; [2]) | EC50 (PPAR delta; [3]) | EC50 (PPAR alpha; [3]) | EC50 (PPAR gamma; [3]) | Compound | ABCA1 mRNA expression [1] | cholesterol efflux [1] |
| --- | --- | --- | --- | --- | --- | --- | --- | --- |
| – | – | – | 150 nM | > 3000 nM | > 3000 nM | Cc1cc(SCc2csnc2-c2ccc(C(F)(F)F)cc2)ccc1OCC(=O)O [Compound d, {2-Methyl-4-[3-(4-trifluoromethyl-phenyl)-isothiazol-4-ylmethylsulfanyl]-phenoxy}-acetic acid] | – | – |
| > 1000 nM | 736 nM | > 3000 nM | – | – | – | Cc1cc(SCc2nc(-c3ccc(OC(F)(F)F)cc3)ns2)ccc1OC1(C(=O)O)CCCC1 [Compound 14, 1-{2-Methyl-4-[3-(4-trifluoromethoxy-phenyl)-[1,2,4]thiadiazol-5-ylmethylsulfanyl]-phenoxy}-cyclopentanecarboxylic acid] | – | – |
| 2.8 nM | 28 nM | > 3000 nM | – | – | – | Cc1cc(SCc2nc(-c3ccc(OC(F)(F)F)c(Cl)c3)ns2)ccc1OC(C)(C)C(=O)O [Compound 8, 2-{4-[3-(3-Chloro-4-trifluoromethoxy-phenyl)-[1,2,4]thiadiazol-5-ylmethylsulfanyl]-2-methyl-phenoxy}-2-methyl-propionic acid] | – | – |
| 5.2 nM | 34 nM | 640 nM | – | – | – | Cc1cc(SCc2nc(-c3ccc(C(F)(F)F)c(F)c3)ns2)ccc1OC(C)(C)C(=O)O [Compound 13, 2-{4-[3-(3-Fluoro-4-trifluoromethyl-phenyl)-[1,2,4]thiadiazol-5-ylmethylsulfanyl]-2-methyl-phenoxy}-2-methyl-propionic acid] | – | – |
| 12.3 nM | 93.5 nM | > 3000 nM | – | – | – | Cc1cc(OCc2nc(-c3ccc(OC(F)(F)F)cc3)ns2)ccc1OC(C)(C)C(=O)O [Compound 24, 2-Methyl-2-{2-methyl-4-[3-(4-trifluoromethoxy-phenyl)-[1,2,4]thiadiazol-5-ylmethoxy]-phenoxy}-propionic acid] | – | – |
